# According to patent US20050256134A1, “Use of creatine analogues and creatine kinase modulators for the prevention and treatment of glucose metabolic disorders” (AVICENA GROUP, INC., priority 1995, published 2005):
# Legend:
# [1] = tested on: NZW rabbits, normal or infected with HCMV in their eyes; assay: Effect of cyclocreatine continuous intravenous infusion on glucose levels in rabbits; format: in vivo, rabbit; settings: for average glucose levels: 10 and 5 mg/ml
# Procedure: The creatine compound cyclocreatine, was given as a continuous intravenous infusion (IV) to normal rabbits or rabbits infected with the human cytomegalovirus (HCMV) in their eyes (Rabbit Chorioretinal model). Glucose levels were recorded over a period of seven days. This compound was tested in infected as well as in normal animals due to the fact that these compounds were also being evaluated as anti viral agents, a biological activity that were reported in the U.S. Pat. No. 5,321,030. As will become clear in the data presented here the eye infection had no effect on the levels of glucose recorded. The schedule and dose selected in these experiments was based on prior experience working with this class of compounds as antiviral agents.
# A total of 11 NZW rabbits weighing 1.75-2.0 Kg were used in the experiments. All animals were infused with various doses of cyclocreatine over a period of 1-7 days in a continuous infusion mode. Continuous infusions were achieved by surgical implantation of an indwelling catheter implant into the jugular vein by standard surgical procedures. The catheter was threaded through a steel sleeve and swivel apparatus attached to the back of the animal's neck which was anchored to a specially fitted vest. A Harvard Apparatus 2200 unifusion pump maintained drug delivery at a constant rate through out the experiment. This arrangement allowed the animal unimpaired movement within its cage. Animals received a bolus injection of antibiotics immediately after surgery and daily if needed. After animals recovered from the anesthesia, some animals were inoculated by intravitreal injection of AD169 HCMV (10^5 pfu). The remaining animals were left uninfected. Both infected and uninfected animals received a continuous infusion of cyclocreatine or saline for up to seven days. Concentrations of cyclocreatine were 5, 10, or 15 mg cyclocreatine/ml saline and infusion rates and volumes were adjusted to achieve the desired dose of 375-1125 mg/Kg/day. These concentrations were based on amounts required to achieve other biological activities such as antiviral or anticancer. […] The rest of the animals received a similar volume of sterile saline. […]
# [2] = tested on: Zuker lean littermates (ZDF +/?); assay: Creatine compounds as 1% of the diet, glucose and insulin levels in lean littermates; format: in vivo, rat
# Excerpt: This preliminary study was initiated to gain insight into the potential regulation of glucose levels by creatine compounds in ZDF rats, a widely studied rodent model of NIDDM (Peterson, Lessons from Animal Diabetes, 1994, Pages 225-230). Male Zuker diabetic fatty (ZDF-fa/fa) rats and their lean Zuker littermates (ZDF +/?) were from Genetic Models, Inc., Indianapolis, Ind. […] Hyperglycemia is initially manifested at about 7 weeks of age and all obese rats are fully diabetic by 12 weeks of age (fed blood glucose of greater than 500 mg %). This level of hyperglycemia increases slightly for several weeks thereafter. Between 7 and 10 weeks, blood insulin levels are high but these subsequently drop as the pancreatic beta cells cease to respond to the glucose stimulus. The lean (ZDF/Gmi) rats are the control counterparts of the diabetic animals. These rats have the same genetics as the obese animals except for the obesity trait. No phenotypic differences have been observed between these rats and other typical lean control rats.
# Male Zuker diabetic fatty (ZDF-fa/fa) rats and Zuker lean littermates (ZDF +/?) were 12 weeks old when dosing with creatine compounds was initiated. The ZDF-fa/fa rats were completely diabetic. The littermates were the same age. […] Animals were bled regularly throughout the experiment and glucose and insulin levels were determined using standard procedures (Linco RI-13K). […]
# [3] = uninfected, 15 mg/ml (1125 mg/Kg/day), day five
smiles,measurement,setting,value
NC1=NCCN1CC(=O)O [cyclocreatine],Glucose Levels,"[1]; 5 mg/ml, HCMV infected, animal 1, day 0",177 mg/dL
same,Glucose Levels,"[1]; 5 mg/ml, HCMV infected, animal 1, day 1",104 mg/dL
same,Glucose Levels,"[1]; 5 mg/ml, HCMV infected, animal 1, day 3",70 mg/dL
same,Glucose Levels,"[1]; 5 mg/ml, HCMV infected, animal 1, day 5",29 mg/dL
same,Glucose Levels,"[1]; 5 mg/ml, HCMV infected, animal 2, day 0",177 mg/dL
same,Glucose Levels,"[1]; 5 mg/ml, HCMV infected, animal 2, day 1",94 mg/dL
same,Glucose Levels,"[1]; 5 mg/ml, HCMV infected, animal 2, day 3",49 mg/dL
same,Glucose Levels,"[1]; 5 mg/ml, HCMV infected, animal 2, day 5",41 mg/dL
same,Glucose Levels,"[1]; 5 mg/ml, HCMV infected, animal 3, day 0",177 mg/dL
same,Glucose Levels,"[1]; 5 mg/ml, HCMV infected, animal 3, day 1",93 mg/dL
same,Glucose Levels,"[1]; 5 mg/ml, HCMV infected, animal 3, day 3",47 mg/dL
same,Glucose Levels,"[1]; 5 mg/ml, HCMV infected, animal 3, day 5",33 mg/dL
same,Glucose Levels,"[1]; 10 mg/ml, HCMV infected, animal 1, day 0",169 mg/dL
same,Glucose Levels,"[1]; 10 mg/ml, HCMV infected, animal 1, day 1",118 mg/dL
same,Glucose Levels,"[1]; 10 mg/ml, HCMV infected, animal 1, day 3",103 mg/dL
same,Glucose Levels,"[1]; 10 mg/ml, HCMV infected, animal 1, day 4",59 mg/dL
same,Glucose Levels,"[1]; 10 mg/ml, HCMV infected, animal 1, day 5",45 mg/dL
same,Glucose Levels,"[1]; 10 mg/ml, HCMV infected, animal 2, day 0",194 mg/dL
same,Glucose Levels,"[1]; 10 mg/ml, HCMV infected, animal 2, day 1",89 mg/dL
same,Glucose Levels,"[1]; 10 mg/ml, HCMV infected, animal 2, day 3",98 mg/dL
same,Glucose Levels,"[1]; 10 mg/ml, HCMV infected, animal 2, day 4",69 mg/dL
same,Glucose Levels,"[1]; 10 mg/ml, HCMV infected, animal 2, day 5",62 mg/dL
same,Glucose Levels,"[1]; 10 mg/ml, HCMV infected, animal 3, day 0",201 mg/dL
same,Glucose Levels,"[1]; 10 mg/ml, HCMV infected, animal 3, day 1",76 mg/dL
same,Glucose Levels,"[1]; 10 mg/ml, HCMV infected, animal 3, day 3",74 mg/dL
same,Glucose Levels,"[1]; 10 mg/ml, HCMV infected, animal 3, day 4",87 mg/dL
same,Glucose Levels,"[1]; 10 mg/ml, HCMV infected, animal 3, day 5",55 mg/dL
same,Glucose Levels,"[1]; 10 mg/ml, HCMV infected, animal 4, day 0",184 mg/dL
same,Glucose Levels,"[1]; 10 mg/ml, HCMV infected, animal 4, day 1",81 mg/dL
same,Glucose Levels,"[1]; 10 mg/ml, HCMV infected, animal 4, day 3",85 mg/dL
same,Glucose Levels,"[1]; 10 mg/ml, HCMV infected, animal 4, day 4",65 mg/dL
same,Glucose Levels,"[1]; 10 mg/ml, HCMV infected, animal 4, day 5",53 mg/dL
same,Glucose Levels,"[1]; 15 mg/ml, not infected, animal 1, day 0",177 mg/dL
same,Glucose Levels,"[1]; 15 mg/ml, not infected, animal 1, day 3",48 mg/dL
same,Glucose Levels,"[1]; 15 mg/ml, not infected, animal 2, day 0",177 mg/dL
same,Glucose Levels,"[1]; 15 mg/ml, not infected, animal 2, day 3",59 mg/dL
same,Glucose Levels,"[1]; 15 mg/ml, not infected, animal 2, day 5",7 mg/dL
same,Glucose Levels,"[1]; 15 mg/ml, not infected, animal 3, day 0",177 mg/dL
same,Glucose Levels,"[1]; 15 mg/ml, not infected, animal 3, day 5",22 mg/dL
same,Glucose Levels,"[1]; 15 mg/ml, not infected, animal 3, day 6",22 mg/dL
same,Glucose Levels,"[1]; 15 mg/ml, not infected, animal 3, day 7, (10 ml/rabbit 20% Dextrose)",73 mg/dL
same,Glucose Levels,"[1]; ave 5 mg/ml, HCMV infected, day 0",177 mg/dL
same,Glucose Levels,"[1]; ave 5 mg/ml, HCMV infected, day 1",97 mg/dL
same,Glucose Levels,"[1]; ave 5 mg/ml, HCMV infected, day 3",55 mg/dL
same,Glucose Levels,"[1]; ave 5 mg/ml, HCMV infected, day 5",34 mg/dL
same,Glucose Levels,"[1]; ave 10 mg/ml, HCMV infected, day 0",187 mg/dL
same,Glucose Levels,"[1]; ave 10 mg/ml, HCMV infected, day 1",91 mg/dL
same,Glucose Levels,"[1]; ave 10 mg/ml, HCMV infected, day 3",90 mg/dL
same,Glucose Levels,"[1]; ave 10 mg/ml, HCMV infected, day 4",70 mg/dL
same,Glucose Levels,"[1]; ave 10 mg/ml, HCMV infected, day 5",54 mg/dL
same,Glucose Levels,"[1]; ave 15 mg/ml, not infected, day 0",177 mg/dL
same,Glucose Levels,"[1]; ave 15 mg/ml, not infected, day 3",54 mg/dL
same,Glucose Levels,"[1]; ave 15 mg/ml, not infected, day 5",15 mg/dL
same,Glucose Levels,"[1]; ave 15 mg/ml, not infected, day 6",22 mg/dL
same,Glucose Levels,"[1]; ave 15 mg/ml, not infected, day 7, (10 ml/rabbit 20% Dextrose)",73 mg/dL
same,blood glucose levels,"[1]; infected, 10 mg/ml (750 mg/Kg/day) and 5 mg/ml (375 mg/Kg/day)",significant drop in blood glucose levels
same,average glucose levels,"[1]; infected, day five",30 to 50 mg/dL
same,average glucose levels,"[1]; infected, day one",~90 mg/dL
same,Glucose Levels,"[1]; uninfected, 15 mg/ml (1125 mg/Kg/day)",significant drop in their glucose levels
same,Glucose Levels,[1]; [3],7 to 22 mg/dL
same,condition of the animals,[1]; [3],very lethargic
same,Glucose Levels,"[1]; uninfected, 15 mg/ml (1125 mg/Kg/day), day three",48 to 59 mg/dL
same,level of glucose after 10 mls of a 20% solution of dextrose,"[1]; uninfected, 15 mg/ml, day 7",70 mg/dL
same,drop in insulin levels,[2]; lean animals,over 50%
same,drop in level of glucose,"[2]; lean rats, vs Day 0, n=3",about 15%
